Our source for the inhibition and IC50 values is ChEMBL document CHEMBL3826904, “Ionic liquid-promoted multicomponent synthesis of fused tetrazolo[1,5-a]pyrimidines as α-glucosidase inhibitors” (Bioorg Med Chem Lett, 2016).

Active and inactive are the calls of the source. No cut-off for these calls is given here.

Test [1] addresses Alpha-glucosidase MAL12 (Saccharomyces cerevisiae S288c) (UniProt P53341). Kind of test: Inhibition of yeast alpha-glucosidase MAL12 at 5 mM using 4-nitrophenyl-alpha-D-glucopyranoside as substrate preincubated for 30 mins followed by substrate addition measured after 10 mins by microplate reader analysis.
The target in test [2] is T1, Pancreatic alpha-amylase (Homo sapiens) (UniProt P04746).
T1 sequence (whole entry): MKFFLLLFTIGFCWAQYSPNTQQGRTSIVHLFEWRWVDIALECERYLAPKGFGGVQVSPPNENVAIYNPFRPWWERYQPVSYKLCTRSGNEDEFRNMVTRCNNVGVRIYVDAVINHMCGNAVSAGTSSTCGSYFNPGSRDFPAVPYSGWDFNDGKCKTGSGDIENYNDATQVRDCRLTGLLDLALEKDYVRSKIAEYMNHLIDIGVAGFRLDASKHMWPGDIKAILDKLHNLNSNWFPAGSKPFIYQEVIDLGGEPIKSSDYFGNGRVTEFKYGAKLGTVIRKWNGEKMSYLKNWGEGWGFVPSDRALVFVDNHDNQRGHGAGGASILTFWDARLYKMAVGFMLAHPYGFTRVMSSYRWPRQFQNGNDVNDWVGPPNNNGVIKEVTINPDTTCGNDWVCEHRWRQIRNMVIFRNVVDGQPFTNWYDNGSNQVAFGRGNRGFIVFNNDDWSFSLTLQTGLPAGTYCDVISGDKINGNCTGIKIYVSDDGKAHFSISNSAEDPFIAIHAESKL
Kind of test: Inhibition of pancreatic alpha-amylase (unknown origin) at 5 mM using starch as substrate preincubated for 30 mins followed by substrate addition measured after 10 mins by dinitrosalicylic acid method based microplate reader analysis.

A further test addresses Alpha-glucosidase MAL12 (Saccharomyces cerevisiae S288c, UniProt P53341). Kind of test: Inhibition of yeast alpha-glucosidase MAL12 using 4-nitrophenyl-alpha-D-glucopyranoside as substrate preincubated for 30 mins followed by substrate addition measured after 10 mins by microplate reader analysis.

Alpha-glucosidase MAL12 (Saccharomyces cerevisiae S288c), sequence (P53341 whole entry): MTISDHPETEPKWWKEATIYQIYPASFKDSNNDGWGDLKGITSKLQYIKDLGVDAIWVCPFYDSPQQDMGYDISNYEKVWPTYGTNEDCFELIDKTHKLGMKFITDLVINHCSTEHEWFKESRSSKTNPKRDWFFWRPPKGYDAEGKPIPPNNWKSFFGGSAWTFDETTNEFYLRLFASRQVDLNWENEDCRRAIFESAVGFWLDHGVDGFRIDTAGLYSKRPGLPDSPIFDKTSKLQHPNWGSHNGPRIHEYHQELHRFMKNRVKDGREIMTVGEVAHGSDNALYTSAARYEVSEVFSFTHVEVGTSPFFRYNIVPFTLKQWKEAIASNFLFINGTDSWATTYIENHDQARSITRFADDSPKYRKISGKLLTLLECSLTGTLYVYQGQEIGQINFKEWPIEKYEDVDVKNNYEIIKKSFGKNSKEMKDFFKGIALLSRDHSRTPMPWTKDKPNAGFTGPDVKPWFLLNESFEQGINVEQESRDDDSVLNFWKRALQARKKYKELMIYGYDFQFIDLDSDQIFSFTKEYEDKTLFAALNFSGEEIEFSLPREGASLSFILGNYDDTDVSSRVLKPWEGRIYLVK
Alpha-glucosidase MAL12, sequence (P53341 whole entry): as above

As for `c1ccc2oc(-c3ccnc4nnnn34)cc2c1`, the inhibition entry in test [1] is “Active”. Moreover, the inhibition result in test [2] was “inactive”.
As a reminder, the IC50 is the midpoint of a concentration-inhibition curve. Lower therefore signals greater potency in that assay. As for `Clc1ccc(-c2ccnc3nnnn23)cc1`, the inhibition entry in test [1] was “Active”. The IC50 on Alpha-glucosidase MAL12 came to 421 µM. Besides, the inhibition entry in test [2] was “inactive”.
On to `Fc1ccc(-c2ccnc3nnnn23)cc1`, for which the inhibition result in test [1] was “Active”. On Alpha-glucosidase MAL12, this molecule returned an IC50 of 178 µM. In addition, in test [2], the inhibition entry is “inactive”.
On the same counts, the results for `Oc1ccccc1-c1ccnc2nnnn12` are “Active”, 1740 µM and “inactive”.
On the same counts, the results for `Cc1ccc(-c2ccnc3nnnn23)cc1` are “Active”, 49.8 µM and “inactive”.
For `O=c1oc2ccccc2cc1-c1ccnc2nnnn12`, in that order: “Active”, 446 µM and “inactive”.
`COc1ccc(-c2ccnc3nnnn23)cc1`: in test [1], the inhibition result is “Active”. This molecule also yielded an IC50 on Alpha-glucosidase MAL12 of 85.7 µM. Further, the inhibition entry in test [2] is “inactive”.
On the same counts, the results for `c1ccc(-c2ccnc3nnnn23)nc1` are “Active”, 591 µM and “inactive”.
Turning to `Brc1ccc(-c2ccnc3nnnn23)cc1`, the inhibition result in test [1] was “Active”. In addition, the inhibition entry in test [2] was “inactive”.
Turning to `c1ccc(-c2ccnc3nnnn23)cc1`, the inhibition result in test [1] was “Active”. The IC50 against Alpha-glucosidase MAL12 came out at 422 µM. In addition, the inhibition entry in test [2] is “inactive”.
For `O=[N+]([O-])c1ccc(-c2ccnc3nnnn23)cc1`, in that order: “Active”, 308 µM and “inactive”.
On the same counts, the results for `c1csc(-c2ccnc3nnnn23)c1` are “Active”, 1010 µM and “inactive”.
